Test results taken from patent US11952392B2, “Arginase inhibitors and methods of use thereof” (AstraZeneca AB, priority 2018, dated 2024).

Experiment: Gravity vapor sorption (GVS) analysis
Format: physicochemical
[1] = at relative humidity (RH) of 80%

Row | SMILES | water absorbed (GVS) [1] | RH after which the solid starts to deliquesce (GVS) | water absorbed (GVS) (at relative humidity (RH) of 70%)
1 | CC(C)[C@@H]1NC(C)(C)N([C@H]2CN[C@]3(CCCCB(O)OC3=O)C2)C1=O [Example 2, (3R,5R)-8-hydroxy-3-((S)-4-isopropyl-2,2-dimethyl-5-oxoimidazolidin-1-yl)-7-oxa-1-aza-8-boraspiro[4.7]dodecan-6-one] | less than 2% |  | 
2 | CC(C)[C@H](N)C(=O)N[C@H]1CN[C@]2(CCCCB(O)OC2=O)C1 [Example 3, (S)-2-amino-N-((3R,5R)-8-hydroxy-6-oxo-7-oxa-1-aza-8-boraspiro[4.7]dodecan-3-yl)-3-methylbutanamide] | less than 2% |  | 
3 | CC(C)[C@H](N)C(=O)N[C@H]1CN[C@]2(CCCCB(O)OC2=O)C1 [Example 1, (S)-2-amino-N-((3R,5R)-8-hydroxy-6-oxo-7-oxa-1-aza-8-boraspiro[4.7]dodecan-3-yl)-3-methylbutanamide] |  | > 80 % RH | less than 2%
